The source made the active and inactive calls. No cut-off for these calls is given here.
How the values were obtained:
[1] = target: NT-3 growth factor receptor (Homo sapiens, UniProt Q16288); experiment: Inhibition of TRKC (unknown origin) incubated for 1 hr by mobility shift assay
[2] = system: KM12; experiment: Antiproliferative activity against human KM12 cells assessed as reduction in cell viability for 72 hrs by MTT assay; conditions: KM12, 72 h
[3] = target: BDNF/NT-3 growth factors receptor (Homo sapiens, UniProt Q16620); experiment: Inhibition of TRKB (unknown origin) incubated for 1 hr by mobility shift assay
Sequence of BDNF/NT-3 growth factors receptor (Q16620 whole entry): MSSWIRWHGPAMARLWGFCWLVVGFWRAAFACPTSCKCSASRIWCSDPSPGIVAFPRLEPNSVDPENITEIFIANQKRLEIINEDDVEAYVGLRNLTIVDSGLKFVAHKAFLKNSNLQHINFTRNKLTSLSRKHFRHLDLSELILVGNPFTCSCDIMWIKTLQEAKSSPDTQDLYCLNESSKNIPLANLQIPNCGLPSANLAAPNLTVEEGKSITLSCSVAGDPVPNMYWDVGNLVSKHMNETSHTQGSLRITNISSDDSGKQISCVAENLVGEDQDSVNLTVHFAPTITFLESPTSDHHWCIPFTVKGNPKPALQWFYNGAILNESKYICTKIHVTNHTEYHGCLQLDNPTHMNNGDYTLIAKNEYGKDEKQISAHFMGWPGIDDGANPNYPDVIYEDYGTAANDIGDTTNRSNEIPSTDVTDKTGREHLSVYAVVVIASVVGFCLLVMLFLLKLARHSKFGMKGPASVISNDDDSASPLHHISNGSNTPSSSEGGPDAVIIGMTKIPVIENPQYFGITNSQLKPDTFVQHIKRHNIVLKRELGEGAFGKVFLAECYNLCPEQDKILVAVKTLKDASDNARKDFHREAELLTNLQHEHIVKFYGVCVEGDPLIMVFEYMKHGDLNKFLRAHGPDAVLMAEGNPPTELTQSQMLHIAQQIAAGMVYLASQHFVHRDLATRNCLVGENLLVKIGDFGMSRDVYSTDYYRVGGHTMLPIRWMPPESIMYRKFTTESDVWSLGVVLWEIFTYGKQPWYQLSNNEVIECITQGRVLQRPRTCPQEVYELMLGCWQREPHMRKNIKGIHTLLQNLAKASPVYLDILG

[4] = target: High affinity nerve growth factor receptor (Homo sapiens, UniProt P04629); experiment: Inhibition of TRKA (unknown origin) incubated for 1 hr by mobility shift assay
Sequence of High affinity nerve growth factor receptor (P04629 whole entry): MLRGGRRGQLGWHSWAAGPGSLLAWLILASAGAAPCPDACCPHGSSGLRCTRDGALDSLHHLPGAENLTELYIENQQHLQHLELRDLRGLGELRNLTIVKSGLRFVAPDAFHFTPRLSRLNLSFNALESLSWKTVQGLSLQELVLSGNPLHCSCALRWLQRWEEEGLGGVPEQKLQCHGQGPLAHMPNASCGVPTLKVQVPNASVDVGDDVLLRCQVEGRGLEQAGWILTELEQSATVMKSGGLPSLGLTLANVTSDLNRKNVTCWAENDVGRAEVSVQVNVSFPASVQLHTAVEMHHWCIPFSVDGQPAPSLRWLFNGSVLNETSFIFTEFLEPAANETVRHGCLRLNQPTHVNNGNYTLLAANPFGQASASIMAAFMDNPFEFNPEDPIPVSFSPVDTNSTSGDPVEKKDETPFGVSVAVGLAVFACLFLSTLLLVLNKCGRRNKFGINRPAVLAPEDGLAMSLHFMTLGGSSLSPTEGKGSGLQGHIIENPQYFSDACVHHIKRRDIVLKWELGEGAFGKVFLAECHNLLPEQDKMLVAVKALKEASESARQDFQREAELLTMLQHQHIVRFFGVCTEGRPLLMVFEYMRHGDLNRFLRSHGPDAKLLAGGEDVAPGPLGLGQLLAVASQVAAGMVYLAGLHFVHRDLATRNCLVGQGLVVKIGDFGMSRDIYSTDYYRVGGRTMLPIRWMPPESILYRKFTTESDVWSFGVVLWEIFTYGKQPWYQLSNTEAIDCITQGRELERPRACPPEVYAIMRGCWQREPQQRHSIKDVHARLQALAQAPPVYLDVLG

[5] = system: A549; experiment: Antiproliferative activity against human A549 cells assessed as reduction in cell viability for 72 hrs by MTT assay; conditions: A549, 72 h
[6] = system: KM12; experiment: Inhibition of colony formation in human KM12 cells assessed as decrease in colony count at 75 nM incubated for 72 hrs by crystal violet staining based assay; format: functional, cell-based

Sequence of NT-3 growth factor receptor (Q16288 whole entry): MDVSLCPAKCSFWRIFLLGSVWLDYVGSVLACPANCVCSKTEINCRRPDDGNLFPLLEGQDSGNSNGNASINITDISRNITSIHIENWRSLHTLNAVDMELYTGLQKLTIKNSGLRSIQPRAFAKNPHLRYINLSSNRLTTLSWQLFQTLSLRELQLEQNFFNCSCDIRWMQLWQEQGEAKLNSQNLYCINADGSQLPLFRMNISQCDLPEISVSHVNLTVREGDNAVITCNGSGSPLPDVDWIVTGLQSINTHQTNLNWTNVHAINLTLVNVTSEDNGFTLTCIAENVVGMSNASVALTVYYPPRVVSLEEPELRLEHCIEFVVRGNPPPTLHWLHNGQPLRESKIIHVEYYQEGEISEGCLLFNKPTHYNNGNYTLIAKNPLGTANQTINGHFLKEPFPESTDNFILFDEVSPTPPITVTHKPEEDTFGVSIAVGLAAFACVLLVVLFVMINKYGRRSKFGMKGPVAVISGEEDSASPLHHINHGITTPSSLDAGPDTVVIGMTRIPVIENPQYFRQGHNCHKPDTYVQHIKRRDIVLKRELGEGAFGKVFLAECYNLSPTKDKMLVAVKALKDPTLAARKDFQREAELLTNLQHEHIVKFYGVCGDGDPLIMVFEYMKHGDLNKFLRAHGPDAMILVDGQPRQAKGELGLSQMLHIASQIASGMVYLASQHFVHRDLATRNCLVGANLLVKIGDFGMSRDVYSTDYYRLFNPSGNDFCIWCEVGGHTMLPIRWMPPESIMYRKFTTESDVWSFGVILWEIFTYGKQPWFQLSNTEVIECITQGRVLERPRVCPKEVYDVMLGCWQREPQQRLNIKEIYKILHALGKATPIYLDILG

## O=C(Nc1cccc(-c2csc(N3CCN(CCO)CC3)n2)c1)c1cc(F)cc(F)c1
[1]
  IC50: > 0.1 µM
[2]
  IC50: 7.25 µM
[3]
  IC50: > 0.1 µM
[4]
  IC50: > 0.1 µM
[5]
  IC50: 0.51 µM

## O=C(Nc1cccc(-c2csc(N3CCC[C@H]3CO)n2)c1)c1cc(F)cc(F)c1
[2]
  IC50: 8.16 µM
[5]
  IC50: 0.39 µM

## CN1CCN(c2ccc(NCc3cn(-c4cccc(CNc5cc(F)cc(F)c5)c4)nn3)cc2C(=O)N2CCCC2)CC1
[2]
  IC50: 0.95 µM
[5]
  IC50: > 10 µM

## O=C(Nc1cccc(-c2csc(N3CCOCC3)n2)c1)c1cc(F)cc(F)c1
[2]
  IC50: 9.63 µM
[5]
  IC50: 0.27 µM

## CN1CCN(c2nc(-c3cccc(NC(=O)c4cc(F)cc(F)c4)c3)cs2)CC1
[2]
  IC50: 14 µM
[5]
  IC50: 0.72 µM

## CN1CCN(c2ccc(C(=O)Nc3n[nH]c4ccc(Cc5cc(F)cc(F)c5)cc34)c(NC3CCOCC3)c2)CC1
[6]
  inhibition: Active

## CN(C)Cc1cn(-c2cccc(NC(=O)c3cc(F)cc(F)c3)c2)nn1
[2]
  IC50: 17.5 µM
[5]
  IC50: > 10 µM

## CN(C)c1nc(-c2cccc(NC(=O)c3cc(F)cc(F)c3)c2)cs1
[2]
  IC50: 28.8 µM
[5]
  IC50: 1.21 µM

## O=C(Nc1cccc(-n2cc(CN3CCSCC3)nn2)c1)c1cc(F)cc(F)c1
[2]
  IC50: 12.3 µM
[5]
  IC50: > 10 µM

## CN1CCN(c2ccc(NCc3cn(-c4cccc(CNc5cc(F)cc(F)c5)c4)nn3)cc2C(=O)N2CCCCC2)CC1
[2]
  IC50: 0.76 µM
[5]
  IC50: > 10 µM

## O=C(Nc1cccc(-c2csc(N3CCC(O)CC3)n2)c1)c1cc(F)cc(F)c1
[2]
  IC50: 7.57 µM
[5]
  IC50: 0.21 µM

## CN1CCN(c2ccc(NCc3cn(-c4cccc(CNc5cc(F)cc(F)c5)c4)nn3)cc2C(=O)N(C)C)CC1
[2]
  IC50: 1.71 µM
[5]
  IC50: > 10 µM

## O=C(Nc1cccc(-n2cc(CN3CCS(=O)(=O)CC3)nn2)c1)c1cc(F)cc(F)c1
[2]
  IC50: 12.2 µM
[5]
  IC50: > 10 µM

## CN1CCN(c2ccc(NCc3cn(-c4cccc(NCc5cc(F)cc(F)c5)c4)nn3)cc2C(=O)N2CCOCC2)CC1
[2]
  IC50: 0.63 µM
[5]
  IC50: > 10 µM

## O=C(Nc1cccc(-n2cc(CN3CCCC3)nn2)c1)c1cc(F)cc(F)c1
[2]
  IC50: 8.02 µM
[5]
  IC50: > 10 µM

## O=C(Nc1cccc(-c2csc(NCCO)n2)c1)c1cc(F)cc(F)c1
[2]
  IC50: 17.1 µM
[5]
  IC50: 0.55 µM

## O=C(Nc1cccc(-c2csc(N3CCCC3)n2)c1)c1cc(F)cc(F)c1
[2]
  IC50: 16.5 µM
[5]
  IC50: 0.17 µM

## O=C(Nc1cccc(-n2cc(CNC3CC3)nn2)c1)c1cc(F)cc(F)c1
[2]
  IC50: 5.21 µM
[5]
  IC50: > 10 µM

## O=C(Nc1cccc(-n2cc(CNC3CCCC3)nn2)c1)c1cc(F)cc(F)c1
[2]
  IC50: 3.83 µM
[5]
  IC50: > 10 µM

Reference: ChEMBL document CHEMBL5360525, “Design, synthesis and anti-tumor efficacy of novel phenyl thiazole/triazole derivatives as selective TrkA inhibitors” (Bioorg Med Chem, 2022)
